Drawing on patent US12215173B2, “Kappa opioid receptor peptide amide ligands” (priority 2019, dated 2025), this text covers IC50 and EC50 for 21 compounds.

Test [1] deals with recombinant human delta (DOR) opioid receptor (Homo sapiens (Human), UniProt P41143). Description: Opioid receptor radioligand binding assay, DOR.
Test [2] addresses recombinant human mu (MOR) opioid receptor (Homo sapiens (Human), UniProt P35372). In words: Opioid receptor radioligand binding assay, MOR.
Test [3] addresses Opioid Kappa Receptor (recombinant human, HEK293 cells) (Homo sapiens (Human), UniProt P41145). Description: cell-based. Conditions: read-out: EC50.
Test [4] deals with recombinant human kappa (KOR) opioid receptor (Homo sapiens (Human), UniProt P41145). In words: biochemical. It is filed as binding. Conditions: HEK293 cell membranes, 0.5 nM [3H]diprenorphine.
Setting [5] is: HEK293 cell membranes, 0.5 nM [3H]DADLE, read-out: DOR, IC50.
[6] abbreviates: HEK293 cell membranes, 0.5 nM [3H]DAMGO, read-out: MOR, IC50.

SMILES strings stand for the structures. Where two headings read alike, the source gives them in different places. Square brackets hold non-standard residues; d marks the D form. Peptide text beside a SMILES is read from it. * marks the point of attachment. Pyrrolidinyl(3-NH2,3-CO2Me) = COC(=O)C1(N)CCN(*)C1; Piperidin1yl(4-NH2,4-COOH) = NC1(C(=O)O)CCN(*)CC1; dAla(cPr) = N[C@H](CC1CC1)C(=O)O

Chain of recombinant human delta (DOR) opioid receptor (P41143 whole entry, looked up): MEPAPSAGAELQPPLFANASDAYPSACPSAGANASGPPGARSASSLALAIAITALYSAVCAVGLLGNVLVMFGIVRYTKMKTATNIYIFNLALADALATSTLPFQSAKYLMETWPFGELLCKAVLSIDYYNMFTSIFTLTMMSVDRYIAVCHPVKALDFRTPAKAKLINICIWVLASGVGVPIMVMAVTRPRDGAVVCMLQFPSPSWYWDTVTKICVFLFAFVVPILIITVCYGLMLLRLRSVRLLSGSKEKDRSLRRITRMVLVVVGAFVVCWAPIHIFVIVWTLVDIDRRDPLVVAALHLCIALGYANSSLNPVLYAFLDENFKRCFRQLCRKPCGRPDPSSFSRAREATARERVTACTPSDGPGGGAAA

In general, IC50 refers to the concentration that gives 50% inhibition. A word on the EC50: it is the midpoint of the concentration-response curve. In the case of `COC(=O)C1(N)CCN(C(=O)[C@@H](CCCCN)NC(=O)[C@@H](CC2CC2)NC(=O)[C@@H](Cc2ccccc2)NC(=O)[C@H](N)Cc2ccccc2)C1` (stereo partly drawn) [Compound 118] (H-[dF][dF][dAla(cPr)][dK]-{Pyrrolidinyl(3-NH2,3-CO2Me)}), the IC50 was above 10000 nM in test [1] (setting [5]), above 10000 nM in test [2] (setting [6]) and 0.33 nM in test [4]. Also, the concentration for a half-maximal effect (EC50) in test [3] worked out at 9.31 nM.
On to `COCCOCCNC(=O)[C@@H](CCCCN)NC(=O)[C@@H](CC(C)C)NC(=O)[C@@H](Cc1ccccc1)NC(=O)[C@H](N)Cc1ccccc1` [Compound 13-4], for which the IC50 in test [1] (setting [5]) is above 10000 nM; in test [2] (setting [6]), above 10000 nM; in test [4] it was 2.8 nM. Also, in test [3], the EC50 amounted to 13.5 nM.
In the case of `CCNC(=O)C(=O)N1CCN(C(=O)[C@@H](CCCCN)NC(=O)[C@@H](CC(C)C)NC(=O)[C@@H](Cc2ccccc2)NC(=O)[C@H](N)Cc2ccccc2)CC1` [Compound 13-43], the results for the IC50 in test [1] (setting [5]), in test [2] (setting [6]) and in test [4] were above 10000 nM, above 10000 nM and 0.33 nM, respectively. Further, the EC50 in test [3] came out at 8.7 nM.
Turning to `CNC(=O)N1CCN(C(=O)[C@@H](CCCCN)NC(=O)[C@@H](CC(C)C)NC(=O)[C@@H](Cc2ccccc2)NC(=O)[C@H](N)Cc2ccccc2)CC1` [Compound 13-58], the IC50 is above 10000 nM in test [1] (setting [5]), above 10000 nM in test [2] (setting [6]) and 0.29 nM in test [4]. For the same compound, in test [3], the EC50 was 10.8 nM.
With `COC(=O)/C=C/C(=O)N1CCN(C(=O)[C@@H](CCCCN)NC(=O)[C@@H](CC(C)C)NC(=O)[C@@H](Cc2ccccc2)NC(=O)[C@H](N)Cc2ccccc2)CC1` [Compound 13-24], the results for the IC50 in test [1] (setting [5]), in test [2] (setting [6]) and in test [4] were above 10000 nM, 7990 nM and 0.52 nM, respectively. The EC50 in test [3] was 31.5 nM.
For `CC(C)C[C@@H](NC(=O)[C@@H](Cc1ccccc1)NC(=O)[C@H](N)Cc1ccccc1)C(=O)N[C@H](CCCCN)C(=O)N(C)C[C@H](O)[C@@H](O)[C@H](O)[C@H](O)CO` [Compound 13-50], in that order: above 10000 nM, 1110 nM, 0.37 nM and 12.2 nM.
Take `CC(C)C[C@@H](NC(=O)[C@@H](Cc1ccccc1)NC(=O)[C@H](N)Cc1ccccc1)C(=O)N[C@H](CCCCN)C(=O)NCc1cc[nH]c(=O)c1` [Compound 13-9]: the IC50 is above 10000 nM in test [1] (setting [5]), above 10000 nM in test [2] (setting [6]) and 0.41 nM in test [4]. Besides, the EC50 in test [3] turned out to be 18.1 nM.
With `CC(C)C[C@@H](NC(=O)[C@@H](Cc1ccccc1)NC(=O)[C@H](N)Cc1ccccc1)C(=O)N[C@H](CCCCN)C(=O)NCc1ccnc(C(=O)O)c1` [Compound 13-8], the IC50 was above 10000 nM in test [1] (setting [5]), above 10000 nM in test [2] (setting [6]) and 6.04 nM in test [4]. For the same compound, the EC50 in test [3] was 14.7 nM.
For `CC(C)C[C@@H](NC(=O)[C@@H](Cc1ccccc1)NC(=O)[C@H](N)Cc1ccccc1)C(=O)N[C@H](CCCCN)C(=O)N1CCC(NC(=O)CC[C@H](N)C(N)=O)CC1` [Compound 13-41], the results for the half-inhibitory concentration (IC50) in test [1] (setting [5]), in test [2] (setting [6]) and in test [4] were above 10000 nM, 8220 nM and 0.21 nM, respectively. Also, the EC50 in test [3] is 9.12 nM.
For `CCNC(=O)N1CCN(C(=O)[C@@H](CCCCN)NC(=O)[C@@H](CC(C)C)NC(=O)[C@@H](Cc2ccccc2)NC(=O)[C@H](N)Cc2ccccc2)CC1` [Compound 13-64], in that order: above 10000 nM, above 10000 nM, 0.47 nM and 2.91 nM.
On the same counts, the results for `CC(C)C[C@@H](NC(=O)[C@@H](Cc1ccccc1)NC(=O)[C@H](N)Cc1ccccc1)C(=O)N[C@H](CCCCN)C(=O)N1CCC(NC(=O)C(=O)NC2CC2)CC1` [Compound 13-22] are above 10000 nM, above 10000 nM, 0.096 nM and 24.8 nM.
On the same counts, the results for `CC(C)C[C@@H](NC(=O)[C@@H](Cc1ccccc1)NC(=O)[C@H](N)Cc1ccccc1)C(=O)N[C@H](CCCCN)C(=O)NC1CCN(C(=O)C(=O)N(C)C)CC1` [Compound 13-17] are above 10000 nM, above 10000 nM, 23.4 nM and 22 nM.
On to `CNC(=O)C(=O)N1CCC(NC(=O)[C@@H](CCCCN)NC(=O)[C@@H](CC(C)C)NC(=O)[C@@H](Cc2ccccc2)NC(=O)[C@H](N)Cc2ccccc2)CC1` [Compound 13-32], for which the figures for the IC50 in test [1], in test [2] and in test [4] were above 10000 nM, 7110 nM and 8.49 nM, respectively. In addition, the EC50 in test [3] came to 26.5 nM.
On the same counts, the results for `CC(=O)N[C@@H](CCC(N)=O)C(=O)NC1CCN(C(=O)[C@@H](CCCCN)NC(=O)[C@@H](CC(C)C)NC(=O)[C@@H](Cc2ccccc2)NC(=O)[C@H](N)Cc2ccccc2)CC1` [Compound 13-56] are above 10000 nM, above 10000 nM, 0.35 nM and 16.7 nM.
For the compound `CC(C)C[C@@H](NC(=O)[C@@H](Cc1ccccc1)NC(=O)[C@H](N)Cc1ccccc1)C(=O)N[C@H](CCCCN)C(=O)N1CCC(NC(=O)/C=C\C(=O)NC(N)=O)CC1` [Compound 13-54], the values for the IC50 in test [1], in test [2] and in test [4] were above 10000 nM, 1530 nM and 0.21 nM, respectively. Besides, the EC50 in test [3] was 15.1 nM.
On the same counts, the results for `CC(C)C[C@@H](NC(=O)[C@@H](Cc1ccccc1)NC(=O)[C@H](N)Cc1ccccc1)C(=O)N[C@H](CCCCN)C(=O)NCC(=O)N1CCC(N)(C(=O)O)CC1` [Compound 67] (H-[dF][dF][dL][dK]G-{Piperidin1yl(4-NH2,4-COOH)}) are above 10000 nM, 5150 nM, 24.8 nM and 51.5 nM.
Take `COC(=O)C1(N)CCN(C(=O)[C@@H](CCCNC(=N)N)NC(=O)[C@@H](CC2CC2)NC(=O)[C@@H](Cc2ccccc2)NC(=O)[C@H](N)Cc2ccccc2)C1` (stereo partly drawn) [Compound 133] (H-[dF][dF][dAla(cPr)][dR]-{Pyrrolidinyl(3-NH2,3-CO2Me)}): the IC50 was above 10000 nM in test [1] (setting [5]), above 10000 nM in test [2] (setting [6]) and 1.3 nM in test [4]. Also, in test [3], the EC50 amounted to 9.64 nM.
As for `COCCOCCOCCNC(=O)[C@@H](CCCCN)NC(=O)[C@@H](CC(C)C)NC(=O)[C@@H](Cc1ccccc1)NC(=O)[C@H](N)Cc1ccccc1` [Compound 13-5], the IC50 in test [1] (setting [5]) was above 10000 nM; in test [2] (setting [6]), above 10000 nM; in test [4] it was 5.92 nM. In test [3], the EC50 came out at 15.8 nM.
For `CC(C)C[C@@H](NC(=O)[C@@H](Cc1ccccc1)NC(=O)[C@H](N)Cc1ccccc1)C(=O)N[C@H](CCCCN)C(=O)NCc1ccc(O)c(O)c1` [Compound 13-10], the IC50 in test [1] (setting [5]) is above 10000 nM; in test [2] (setting [6]) it was above 10000 nM; in test [4], 0.67 nM. For the same compound, in test [3], the EC50 was 23.1 nM.
With `CNC(=O)C(=O)NC1CCN(C(=O)[C@@H](CCCCN)NC(=O)[C@@H](CC(C)C)NC(=O)[C@@H](Cc2ccccc2)NC(=O)[C@H](N)Cc2ccccc2)CC1` [Compound 13-28], the IC50 was above 10000 nM in test [1] (setting [5]), above 10000 nM in test [2] (setting [6]) and 0.26 nM in test [4]. The EC50 in test [3] was determined as 20.8 nM.
Regarding `CC(C)C[C@@H](NC(=O)[C@@H](Cc1ccccc1)NC(=O)[C@H](N)Cc1ccccc1)C(=O)N[C@H](CCCCN)C(=O)NCc1ccc2c(c1)OCO2` [Compound 13-1], the values for the IC50 in test [1], in test [2] and in test [4] were above 10000 nM, 2080 nM and 1.96 nM, respectively. Besides, the EC50 in test [3] was found to be 42.2 nM.
